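Each compound was tested at five concentrations against cells in 96-well plates for 48 hours. GI50 is the concentration that inhibits growth by half. The concentration for full growth arrest is given as TGI.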
System: MDA-MB-468 breast
Assay: NCI tumour cell line growth inhibition, 48 h

| Compound | GI50 [µM] | TGI [µM] |
| --- | --- | --- |
| Cn1cc(-c2csc(-c3c[nH]c4ccc(F)cc34)n2)c2cnccc21 | 1.45 | 3.19 |
| O=C(c1ccccc1)c1cc2ccccc2o1 | 48.2 | > 100 |
| CC[C@H]1[C@@H]2C=C[C@@H]3[C@H]4C/C=C\C(=O)NCCC[C@@H]5NC(=O)/C(=C(O)/C=C/[C@@H]4C[C@@H]3[C@H]2C[C@H]1C)C5=O | 2.02 | 5.16 |
| Nc1c(C(=O)Nc2ccncc2)sc2nc3c(cc12)CCCCCCCC3 | 0.966 | 1.76 |
| COc1cc(-c2cc(-c3cc4c([nH]c5ccccc54)c(-c4cc(OC)c(OC)c(OC)c4)n3)cc(-c3ccccc3)n2)cc(OC)c1OC | 1.73 | 4.61 |
| CNCC#Cc1c(F)ccc2c1/C(=C/c1[nH]ccc1OC)C(=O)N2 | 0.279 | 0.858 |
| CC(=O)OC12C=CC(=O)N1c1ccccc1C(=O)O2 (centres undefined) | > 100 | > 100 |
| Cc1ncc(C(=O)Nc2ccc(CN3CCN(C)CC3)c(C(F)(F)F)c2)cc1C#Cc1cnc(N)c2ccncc12 | 1.87 | 4.4 |
| CCCN1C(=O)N(CCC)C2C1NC(=S)N2/N=C/C=C/c1ccccc1OC (centres undefined) | 0.372 | 17 |
| CCOC(=O)Nc1ccc(-c2nc(-c3cccc(OCCN4CCOCC4)c3)c(-c3ccnc(Br)c3)[nH]2)cc1 | 1.68 | 3.66 |
| [Cl][Hg][c]1cc[c]([Hg][Cl])o1 | 1.58 | 3.32 |
| C#C[C@]1(O)CCC2C3CCc4cc(O)ccc4C3CC[C@@]21C (some centres undefined) | 1.84 | 6.2 |
| COc1ccc(-c2nn(-c3ccc(NC(=O)c4ccc(Cl)c(Cl)c4)cc3)cc2-c2ccncc2)cc1Cl | 3.15 | > 50 |
| C[C@@H]1CC[C@@H]2[C@@H]1[C@H](OC(=O)/C=C/c1ccccc1)[C@]1(C3CCCCC3)C[C@@H](OC(=O)CO)[C@@]2(C)O1 | 3.33 | 11.1 |
| CS(=O)(=O)CCNCc1nc(-c2ccc3ncnc(Nc4ccc(OCc5cccc(C(F)(F)F)c5)cc4)c3c2)cs1 | 1.55 | > 20.9 |
| COc1c(OC[C@H](O)CN2CCOCC2)ccc2c3n(c(=NC(=O)c4cccnc4C)nc12)CCN3 | 0.143 | 1.95 |
| CC(=O)O[C@@H]1C[C@H]2O[C@@H]3C=C(C)CC[C@]3(C)[C@]1(C)[C@]21CO1 | 4.92 | 18.2 |
| COc1ccc(C(=O)/C=C/c2cc(-c3cc(OC)c(OC)c(OC)c3)n[nH]2)cc1OC | 0.759 | 2.18 |
| O=C1OCC2=C1C(c1cccc(Br)c1)c1cc3c(cc1N2CCO)CCC3 (centres undefined) | 0.0436 | 1.14 |

| Compound | GI50 [µM] | TGI [µM] |
| --- | --- | --- |
| CN1C(=O)N(C)C2C1NN=c1s/c(=C\c3ccc(Cl)cc3Cl)c(=O)n12 (centres undefined) | 0.183 | 33.4 |
| O=C(Nc1ccncc1)C(=O)c1cn(S(=O)(=O)c2ccc(F)cc2)c2ccccc12 | 1.67 | > 100 |
| COc1ccc2[nH]cc(C3(c4c[nH]c5ccc(OC)cc45)C(=O)Nc4ccc(F)cc43)c2c1 | 2.07 | 5.67 |
| Cn1cc(C2=C(c3cn(CCCCO)c4ccccc34)C(=O)NC2=O)c2ccccc21 | 12 | > 25 |
| COc1cc(Cn2c(-c3ccccc3)c(Cl)c3c2-c2oncc2CC3)cc(OC)c1 | 2.49 | 7.69 |
| COc1cccc2c1C(=O)c1c(O)c3c(c(O)c1C2=O)C[C@](O)(C(=O)CO)C[C@H]3O[C@@H]1C[C@@H](NC(=O)CCCCCN(C)C2(c3ccc(F)cc3)CC3CCC2C3)[C@H](O)[C@@H](C)O1 (some centres undefined) | 5.87 | 13.5 |
| C=C(C)[C@@H]1CC[C@]2(C)[C@H](CC=C3[C@@H]4CC(C)(C)CC[C@]4(C(N)=O)CC[C@]32C)[C@@]1(C)CCC#N | 2.41 | 8.42 |
| COc1cc2c(c(OC)c1OC)-c1ccc(SC)c(=O)cc1C(NC=O)CC2 (centres undefined) | < 0.01 | > 100 |
| Cc1ccc(NC(=O)CC2CC2)cc1-c1ccc(C(=O)NCC2CC2)cc1 | > 15 | > 25 |
| CCSc1ncnc2c1ncn2C1OC(CO)C(O)C1O (centres undefined) | 0.583 | 17.6 |
| CC(C)Oc1ccc2cc(-c3nn(CC4CCNCC4)c4ncnc(N)c34)ccc2c1 | 6.9 | 21 |
| O=C(N[C@@H](c1ccc(Cl)c(Cl)c1)C1CNC1)c1ccc2cnccc2c1 | 0.0617 | 0.638 |
| Cc1cc2nc3c4cc(Cl)ccc4n(CC(=S)NCCN(C)C)c3nc2cc1C | 1.95 | 3.96 |
| O=C(CC1(O)C(=O)N(Cc2ccccc2)c2ccc(F)cc21)c1ccc(C(=O)NCC2CCC3(CC2)OOC2(CCCCC2)OO3)cc1 (centres undefined) | 1.35 | 3.39 |
| Cc1nn(-c2ccc(Cl)cc2)c2nc3c(nc12)C(=O)c1ccccc1-3 | 58.5 | > 100 |
| CCOC(=O)C(Cc1ccc(CCCC(=O)NCCC(=O)Nc2ccc3nc(C)sc3c2)cc1)C(=O)OCC | 17.6 | 58.1 |
| COc1cc(F)ccc1-c1ncnc(Nc2cccc(CS(C)(=N)=O)c2)n1 (centres undefined) | 0.895 | 5.56 |
| C=CCCCCOc1ccccc1-c1cnc(OCCCCC=C)n1C | 1.93 | 7.86 |

— PubChem BioAssay (NCI)
